Columns and labels:
[1] = biological target: T1, sigma-1 receptor (Cavia porcellus, UniProt Q60492); assay: Sigma-1 receptor binding, [3H](+)-pentazocine displacement in guinea pig brain membrane homogenates; settings: inhibiting binding of [3H](+)-pentazocine to guinea pig brain homogenates; mean ± S.E.M., at least three experiments
T1 construct: guinea pig brain (sigma-1 assay) or rat liver (sigma-2 assay) membrane homogenates; from tissue; host or cells: guinea pig brain membrane homogenate
Experimental: The sigma-1 and sigma-2 receptor binding affinities of SW IV-134 were determined as previously described. Briefly, guinea pig brain (sigma-1 assay) or rat liver (sigma-2 assay) membrane homogenates (~300 μg protein) were diluted with 50 mM Tris-HCl, pH 8.0 and incubated with the radioligand {~5 nM [^3H](+)-pentazocine (34.9 Ci/mmol; sigma-1 assay) or ~5 nM [3H](+)-DTG (58.1 Ci/mmol; sigma-2 assay)} and SW IV-134 with concentrations ranging from 0.1 nM to 10 μM in a total volume of 150 μL in 96-well plates at 25°C. […] Each filter was washed three times with 200 μL of ice-cold wash buffer, and the bound radioactivity quantified using a Wallac 1450 MicroBeta liquid scintillation counter (Perkin Elmer, Boston, MA). Nonspecific binding was determined in the presence of 10 μM cold haloperidol. […]
Table S1. […] The sigma-1 and sigma-2 receptor binding affinities of S W I V-134 were determined as previously described (22). For details see also the Materials and Methods section. a Mean ± S .E .M .K i values were determined by at least three ex periments. b Ki for inhibiting the binding of [ 3H] […]

[2] = Adverse effects after 3 weeks of intraperitoneal treatment: necropsy, complete blood count, serum chemistries; type: in vivo, SCID mice; settings: for Peritonitis at necropsy: also seen in vehicle treated mice
Experimental: In vivo experiments were conducted with 15 mice per treatment group. Treatment involved daily intraperitoneal injections with 90 μL of SW43 (7.5 mM stock), SW IV-134 (7.5 mM stock), or vehicle-only (25% cremophor in H2O) for 3 weeks. Tumor burden was monitored by bioluminescence imaging once a week during the treatment period. At the end of the treatment, 5 mice were randomly removed per treatment group and submitted for necropsy to the Washington University Department of Comparative Medicine. Blood samples were collected by intracardiac withdrawal prior to necropsy for chemistry and hematology work-up. In addition, various key organs were harvested for gross and histopathological examination. The remaining 10 mice from each treatment group were followed over time to examine overall survival. For survival studies, actual death or poor physical condition/large tumor size meeting criteria for euthanasia, constituted a death event.
Supplementary file 1476-4598-13-50-S6.pdf: Additional file 6: Table S2 Complete blood count and serum chemistries for severe combined immunodeficient (SCID) mice treated with SW IV-134, SW43, and vehicle control. SCID mice were treated daily with intra-peritoneal injections of SW IV-134, SW43, and vehicle control for 3 weeks. At the end of treatment, blood was collected from mice in each treatment group and analyzed for hemoglobin, white blood count, and platelets. Serum chemistries were also obtained to determine the levels of liver enzymes aspartate aminotransferase (AST) and alanine aminotransferase (ALT), renally cleared metabolites blood urea nitrogen (BUN) and creatinine, as well as total protein and glucose. The mice treated with SW134 were noted to have a statistically significant decrease in hemoglobin and an increase in white blood count compared to those treated with SW43 or vehicle control. Click here for file […]
Table S2: Complete b l o od count and ser um chemistries f or SCI D mice treated with SW IV-134, SW43, and vehicle. SC ID m ic e were treated daily with intra- peritoneal injections of SW 134, SW 43, and vehicle control fo r 3 weeks. At the end of treatment, bloo d was co lle ct ed from mice in each treatment gro up and analyzed for hemoglobin, w hit e bloo d co un t , and plate lets. S e r um chemistries were also obtained to determine the levels of l iv e r enzymes as pa rt at e aminotransferase ( A ST ) and alanine aminotransferase (ALT), renally cleared metabolites blood urea nitrogen ( BUN) and creatinine, as well as tot al protein a nd gl uco s e. The mice treated w it h SW IV- 134 were no te d to have a statistically significant decrease in hemoglobin and an increase in w hit e bloo d co u nt compared to those treated with SW43 or vehicle control.

[3] = SCID mice, daily i.p. 3 weeks, end of treatment

T1 sequence (Q60492 whole entry): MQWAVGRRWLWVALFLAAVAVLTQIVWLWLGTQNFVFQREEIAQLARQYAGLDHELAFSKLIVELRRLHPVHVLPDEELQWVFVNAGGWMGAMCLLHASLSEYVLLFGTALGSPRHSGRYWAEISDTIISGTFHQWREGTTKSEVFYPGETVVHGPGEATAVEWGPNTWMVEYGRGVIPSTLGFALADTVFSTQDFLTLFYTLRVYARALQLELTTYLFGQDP

Structure (SMILES) | Ki [1] | ALT, mean [2, 3] | BUN, mean [2, 3] | Creatinine, mean [2, 3] | Hemoglobin, mean [2, 3] | Total bilirubin, mean [2, 3] | Total protein, mean [2, 3] | WBC, mean [2, 3] | Peritonitis at necropsy ([2]; i.p. daily for 3 weeks) | AST, mean [2, 3] | Glucose, mean [2, 3] | Platelet, mean [2, 3] | Splenomegaly ([2]; i.p. daily for 3 weeks)
COc1ccc(C)cc1NC(=O)OC1CC2CCCC(C1)N2CCCCCCCCCCN (stereo not shown) [SW43, reference compound] | 0.134 ± 0.0119 µM | 56.0 u/L | 22.3 mg/dL | 0.3 mg/dL | 11.7 g/dL | 0.1 mg/dL | 5.8 g/dL | 3.2 103 /µl | mild to moderate peritonitis |  |  |  | 
COc1ccc(C)cc1NC(=O)OC1CC2CCCC(C1)N2CCCCCCCCCCN[C@@H](C)C(=O)N[C@H](C(=O)N1CCC[C@H]1C(=O)N[C@@H]1CCCc2ccccc21)C(C)(C)C (stereo partly shown) [SW IV-134] | 5.74 ± 0.476 µM | 84.0 u/L | 24.8 mg/dL | 0.4 mg/dL | 9.5 g/dL | 0.1 mg/dL | 6.0 g/dL | 19.3 103 /µl | mild to moderate peritonitis | 91.4 u/L | 103.6 mg/dL | 1063.8 103 /µl | mild splenomegaly
